# Target: T1, human recombinant P2X7 receptor (Homo sapiens, UniProt Q99572)
# T1 construct: expressed in transfected cells
# T1 sequence (Q99572 1-595): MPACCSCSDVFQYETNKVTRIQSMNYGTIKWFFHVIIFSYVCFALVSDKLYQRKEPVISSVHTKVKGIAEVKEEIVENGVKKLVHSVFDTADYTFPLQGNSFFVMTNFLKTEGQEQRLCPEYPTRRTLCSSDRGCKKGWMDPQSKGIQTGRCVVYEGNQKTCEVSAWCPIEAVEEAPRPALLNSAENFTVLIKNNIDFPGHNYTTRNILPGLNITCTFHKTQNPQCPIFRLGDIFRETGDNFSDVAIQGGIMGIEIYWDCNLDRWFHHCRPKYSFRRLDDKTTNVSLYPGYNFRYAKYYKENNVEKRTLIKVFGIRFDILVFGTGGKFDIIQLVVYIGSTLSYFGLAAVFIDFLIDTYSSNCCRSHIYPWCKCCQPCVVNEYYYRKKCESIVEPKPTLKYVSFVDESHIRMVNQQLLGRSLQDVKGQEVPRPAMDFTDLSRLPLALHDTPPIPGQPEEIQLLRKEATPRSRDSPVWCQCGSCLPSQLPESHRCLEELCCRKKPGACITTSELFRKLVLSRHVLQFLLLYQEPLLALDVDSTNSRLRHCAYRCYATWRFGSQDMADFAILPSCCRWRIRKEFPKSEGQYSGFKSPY
# Test: YO-PRO assay: P2X7 receptor antagonistic activity in HEK cells stably expressing P2X7
# Assay type: cell-based
# Details: antagonistic activity with respect to the P2X7 receptor, read-out: IC50
# Outline: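 HEK cells stably transfected with human P2X7 (cloned from blood cDNA) were loaded with 0.5 μM YO-PRO-1. They were exposed to antagonist (10 concentrations, top 10 μM, 1/3 steps, duplicate) together with 250 μM ATP for 90 min, and dye uptake was read by FLIPR at ex 485/em 530. IC50 from maximum fluorescence versus concentration.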
row,Structure (SMILES),IC50
1,"O=C(NCC(c1cncs1)N1CCCCC1)c1ccc2[nH]ccc2c1Cl (racemic) [Example 62, rac-4-Chloro-1H-indole-5-carboxylic acid (2-piperidin-1-yl-2-thiazol-5-yl-ethyl)-amide]",48 nM
2,"O=C(NCC(c1cncs1)N1CCOCC1)c1ccc2[nH]ccc2c1Cl (racemic) [Example 64, rac-4-Chloro-1H-indole-5-carboxylic acid (2-morpholin-4-yl-2-thiazol-5-yl-ethyl)-amide]",53 nM
3,"Cc1ncc(C(CNC(=O)c2ccc3[nH]ccc3c2Cl)N2CCCC(F)(F)C2)cn1 (racemic) [Example 79, rac-4-Chloro-1H-indole-5-carboxylic acid [2-(3,3-difluoro-piperidin-1-yl)-2-(2-methyl-pyrimidin-5-yl)-ethyl]-amide]",9.3 nM
4,"Cc1ccc(C(CNC(=O)c2ccc3[nH]ccc3c2Cl)N2CCOCC2)cc1 (racemic) [Example 47, rac-4-Chloro-1H-indole-5-carboxylic acid (2-morpholin-4-yl-2-p-tolyl-ethyl)-amide]",54 nM
5,"O=C(NCC(c1cccc(F)c1)N1CCCCC1)c1ccc2[nH]ccc2c1Cl (racemic) [Example 43, rac-4-Chloro-1H-indole-5-carboxylic acid [2-(3-fluoro-phenyl)-2-piperidin-1-yl-ethyl]-amide]",163 nM
6,"O=C(NCC(c1ccccc1F)N1CCOCC1)c1ccc2[nH]ccc2c1Cl (racemic) [Example 35, rac-4-Chloro-1H-indole-5-carboxylic acid [2-(2-fluoro-phenyl)-2-morpholin-4-yl-ethyl]-amide]",161 nM
7,"O=C(NCC(c1ccc(F)cn1)N1CCCCC1)c1ccc2[nH]ccc2c1Cl (racemic) [Example 32, rac-4-Chloro-1H-indole-5-carboxylic acid [2-(5-fluoro-pyridin-2-yl)-2-piperidin-1-yl-ethyl]-amide]",232 nM
8,"Cc1ncc(C(CNC(=O)c2ccc3[nH]ccc3c2Cl)N2CCCOCC2)cn1 (racemic) [Example 81, rac-4-Chloro-1H-indole-5-carboxylic acid [2-(2-methyl-pyrimidin-5-yl)-2-[1,4]oxazepan-4-yl-ethyl]-amide]",26 nM
9,"Cc1ncc(C(CNC(=O)c2ccc3[nH]ccc3c2C)N2CCOCC2)cn1 (single isomer, unassigned) [Example 106, 4-Methyl-1H-indole-5-carboxylic acid [2-(2-methyl-pyrimidin-5-yl)-2-morpholin-4-yl-ethyl]-amide]",25 nM

# More lines, in order of falling IC50, values ahead:
row,IC50,Structure (SMILES)
1,774 nM,"Cc1ccc(C(CNC(=O)c2ccc3[nH]ccc3c2Cl)N2CCCCC2)cc1 (racemic) [Example 55, rac-4-Chloro-1H-indole-5-carboxylic acid (2-piperidin-1-yl-2-p-tolyl-ethyl)-amide]"
2,251 nM,"O=C(NCC(c1ccc(F)cc1F)N1CCCCC1)c1ccc2[nH]ccc2c1Cl (racemic) [Example 31, rac-4-Chloro-1H-indole-5-carboxylic acid [2-(2,4-difluoro-phenyl)-2-piperidin-1-yl-ethyl]-amide]"
3,87 nM,"Cc1ncc([C@H](CNC(=O)c2ccc3[nH]ccc3c2Cl)N2CCCCC2C)cn1 (mixture of isomers) [Example 77, 4-Chloro-1H-indole-5-carboxylic acid [(R)-2-(2-methyl-piperidin-1-yl)-2-(2-methyl-pyrimidin-5-yl)-ethyl]-amide]"
4,55 nM,"COc1ccc(C(CNC(=O)c2ccc3[nH]ccc3c2Cl)N2CCOCC2)cc1 (racemic) [Example 59, rac-4-Chloro-1H-indole-5-carboxylic acid [2-(4-methoxy-phenyl)-2-morpholin-4-yl-ethyl]-amide]"
5,35 nM,"Cc1ncc(C(CNC(=O)c2cc(C)c3[nH]ccc3c2C)N2CCOCC2)cn1 (racemic) [Example 104, rac-4,7-Dimethyl-1H-indole-5-carboxylic acid [2-(2-methyl-pyrimidin-5-yl)-2-morpholin-4-yl-ethyl]-amide]"
6,20 nM,"COc1cc(C(=O)NCC(c2cnc(C)nc2)N2CCOCC2)c(F)c2cc[nH]c12 (racemic) [Example 118, rac-4-Fluoro-7-methoxy-1H-indole-5-carboxylic acid [2-(2-methyl-pyrimidin-5-yl)-2-morpholin-4-yl-ethyl]-amide]"
7,18 nM,"CCCc1cc(C(=O)NCC(c2cnc(C)nc2)N2CCOCC2)c(Cl)c2cc[nH]c12 (racemic) [Example 111, rac-4-Chloro-7-propyl-1H-indole-5-carboxylic acid [2-(2-methyl-pyrimidin-5-yl)-2-morpholin-4-yl-ethyl]-amide]"
8,13 nM,"O=C(NCC(c1ccc(F)c(F)c1)N1CCOCC1)c1ccc2[nH]ccc2c1Cl (racemic) [Example 50, rac-4-Chloro-1H-indole-5-carboxylic acid [2-(3,4-difluoro-phenyl)-2-morpholin-4-yl-ethyl]-amide]"
9,12 nM,"Cc1ncc(C(CNC(=O)c2ccc3[nH]ccc3c2Cl)N2CCC(F)CC2)cn1 (racemic) [Example 78, rac-4-Chloro-1H-indole-5-carboxylic acid [2-(4-fluoro-piperidin-1-yl)-2-(2-methyl-pyrimidin-5-yl)-ethyl]-amide]"
10,10 nM,"Cc1ncc(C(CNC(=O)c2cc(CC(C)C)c3[nH]ccc3c2Cl)N2CCOCC2)cn1 (racemic) [Example 98, rac-4-Chloro-7-isobutyl-1H-indole-5-carboxylic acid [2-(2-methyl-pyrimidin-5-yl)-2-morpholin-4-yl-ethyl]-amide]"
11,9.6 nM,"Cc1ncc(C(CNC(=O)c2cc(C)c3[nH]ccc3c2Cl)N2CCOCC2)cn1 (single isomer, unassigned) [Example 96, 4-Chloro-7-methyl-1H-indole-5-carboxylic acid [2-(2-methyl-pyrimidin-5-yl)-2-morpholin-4-yl-ethyl]-amide]"
12,8.2 nM,"COc1cc(C(=O)NCC(c2cnc(C)nc2)N2CCOCC2)c(Cl)c2cc[nH]c12 (single isomer, unassigned) [Example 115, 4-Chloro-7-methoxy-1H-indole-5-carboxylic acid [2-(2-methyl-pyrimidin-5-yl)-2-morpholin-4-yl-ethyl]-amide]"
13,7.7 nM,"O=C(NCC(c1cnc(C2CC2)nc1)N1CCOCC1)c1ccc2[nH]ccc2c1Cl (racemic) [Example 9, rac-4-Chloro-1H-indole-5-carboxylic acid [2-(2-cyclopropyl-pyrimidin-5-yl)-2-morpholin-4-yl-ethyl]-amide]"
14,4.7 nM,"O=C(NCC(c1ccc(Cl)nc1)N1CCOCC1)c1ccc2[nH]ccc2c1Cl (racemic) [Example 24, rac-4-Chloro-1H-indole-5-carboxylic acid [2-(6-chloro-pyridin-3-yl)-2-morpholin-4-yl-ethyl]-amide]"

# From patent publication US9718774B2, “Indole carboxamide derivatives as P2X7 receptor antagonist” (ACTELION PHARMACEUTICALS LTD, priority 2012, dated 2017)
